The supplement of paper PMC10307832

Legend:
Assay in all cases: relative viability (nuclei count vs DMSO), 5 days (fraction); higher = more cells survive
[1] = system: CAL-12T
Procedure, shortened: (§1)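 Values are medians from duplicate plates. Each reflects relative viability, defined as the nuclei count of treated wells over that of vehicle wells. Lung cancer cell lines in 1536-well plates were pin-tool dosed one day after seeding with one drug alone or with a fixed anchor-drug dose plus five library-drug doses (not always all listed) in √10 steps, then fixed, stained and imaged at 4× after 5 days.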

[2] = system: ChaGo-K-1
Procedure, shortened: as §1

[3] = system: EMC-BAC-2
Procedure, shortened: as §1

[4] = system: HCC-366
Procedure, shortened: as §1

[5] = system: HCC-78
Procedure, shortened: as §1

[6] = system: HOP-62
Procedure, shortened: as §1

[7] = system: LC-2-ad
Procedure, shortened: as §1

[8] = system: LK-2
Procedure, shortened: as §1

[9] = system: NCI-H1355
Procedure, shortened: as §1

[10] = system: NCI-H1734
Procedure, shortened: as §1

[11] = system: NCI-H1993
Procedure, shortened: as §1

[12] = system: NCI-H2009
Procedure, shortened: as §1

[13] = system: NCI-H2085
Procedure, shortened: as §1

[14] = system: NCI-H2228
Procedure, shortened: as §1

[15] = system: NCI-H2347
Procedure, shortened: as §1

[16] = system: NCI-H2405
Procedure, shortened: as §1

[17] = system: NCI-H3122
Procedure, shortened: as §1

[18] = system: NCI-H596
Procedure, shortened: as §1

[19] = system: NCI-H838
Procedure, shortened: as §1

[20] = system: PC-14
Procedure, shortened: as §1

[21] = system: RERF-LC-KJ
Procedure, shortened: as §1

[22] = system: SK-MES-1
Procedure, shortened: as §1

[23] = system: SW 1573
Procedure, shortened: as §1

With `Cc1cnc(-c2cnc(NCCNc3ccc(C#N)cn3)nc2-c2ccc(Cl)cc2Cl)[nH]1` + CS(=O)(=O)N1CCN(Cc2cc3nc(-c4cccc5[nH]ncc45)nc(N4CCOCC4)c3s2)CC1 [Pictilisib] (partner 1 µM) the relative viability ([1]; first compound 0.253 µM) was 0.52, the relative viability ([1]; first compound 2.53 µM) was 0.53 and the relative viability ([2]; first compound 0.08 µM) was 0.612. For the same compound, the relative viability ([2]; first compound 0.253 µM) was 0.828, the relative viability ([2]; first compound 0.8 µM) was 0.375 and the relative viability ([2]; first compound 2.53 µM) was 0.623. The relative viability ([3]; first compound 0.08 µM) was 0.579, the relative viability ([3]; first compound 0.253 µM) was 0.525 and the relative viability ([3]; first compound 0.8 µM) was 0.515. The relative viability ([3]; first compound 2.53 µM) was 0.567, the relative viability ([4]; first compound 0.08 µM) was 0.148 and the relative viability ([4]; first compound 0.253 µM) was 0.128. It also gave a relative viability ([4]; first compound 0.8 µM) of 0.119, a relative viability ([4]; first compound 2.53 µM) of 0.132 and a relative viability ([5]; first compound 0.08 µM) of 0.198. For the same compound, the relative viability ([5]; first compound 0.253 µM) was 0.253, the relative viability ([5]; first compound 0.8 µM) was 0.233 and the relative viability ([5]; first compound 2.53 µM) was 0.308. The relative viability ([6]; first compound 0.08 µM) was 0.777, the relative viability ([6]; first compound 0.253 µM) was 0.688 and the relative viability ([6]; first compound 0.8 µM) was 0.725. It also gave a relative viability ([6]; first compound 2.53 µM) of 0.647, a relative viability ([7]; first compound 0.08 µM) of 0.489 and a relative viability ([7]; first compound 0.8 µM) of 0.441. The relative viability ([7]; first compound 2.53 µM) was 0.468, the relative viability ([8]; first compound 0.08 µM) was 0.646 and the relative viability ([8]; first compound 0.253 µM) was 0.577. It also gave a relative viability ([8]; first compound 0.8 µM) of 0.618, a relative viability ([8]; first compound 2.53 µM) of 1.11 and a relative viability ([9]; first compound 0.08 µM) of 0.442. The relative viability ([9]; first compound 0.253 µM) was 0.366, the relative viability ([9]; first compound 0.8 µM) was 0.399 and the relative viability ([9]; first compound 2.53 µM) was 0.542. It also gave a relative viability ([10]; first compound 0.08 µM) of 0.548, a relative viability ([10]; first compound 0.253 µM) of 0.43 and a relative viability ([10]; first compound 0.8 µM) of 0.432. For the same compound, the relative viability ([10]; first compound 2.53 µM) was 0.522, the relative viability ([11]; first compound 0.08 µM) was 0.92 and the relative viability ([11]; first compound 0.253 µM) was 0.911. It also gave a relative viability ([11]; first compound 0.8 µM) of 0.87, a relative viability ([11]; first compound 2.53 µM) of 0.806 and a relative viability ([12]; first compound 0.08 µM) of 0.877. For the same compound, the relative viability ([12]; first compound 0.253 µM) was 0.81, the relative viability ([12]; first compound 0.8 µM) was 0.814 and the relative viability ([12]; first compound 2.53 µM) was 0.732. The relative viability ([13]; first compound 0.08 µM) was 0.551, the relative viability ([13]; first compound 0.253 µM) was 0.517 and the relative viability ([13]; first compound 0.8 µM) was 0.455. The relative viability ([13]; first compound 2.53 µM) was 0.43, the relative viability ([14]; first compound 0.08 µM) was 0.263 and the relative viability ([14]; first compound 0.253 µM) was 0.229. The relative viability ([14]; first compound 0.8 µM) was 0.569, the relative viability ([14]; first compound 2.53 µM) was 0.287 and the relative viability ([15]; first compound 0.08 µM) was 0.931. It also gave a relative viability ([15]; first compound 0.253 µM) of 0.416, a relative viability ([15]; first compound 0.8 µM) of 0.698 and a relative viability ([15]; first compound 2.53 µM) of 0.6. The relative viability ([16]; first compound 0.08 µM) was 0.472, the relative viability ([16]; first compound 0.253 µM) was 0.485 and the relative viability ([16]; first compound 0.8 µM) was 0.422. It also gave a relative viability ([16]; first compound 2.53 µM) of 0.412, a relative viability ([17]; first compound 0.08 µM) of 0.65 and a relative viability ([17]; first compound 0.253 µM) of 0.64. It also gave a relative viability ([17]; first compound 0.8 µM) of 0.646, a relative viability ([17]; first compound 2.53 µM) of 0.763 and a relative viability ([18]; first compound 0.08 µM) of 0.424. It also gave a relative viability ([18]; first compound 0.253 µM) of 0.397, a relative viability ([18]; first compound 0.8 µM) of 0.391 and a relative viability ([18]; first compound 2.53 µM) of 0.435. The relative viability ([19]; first compound 0.08 µM) was 0.525, the relative viability ([19]; first compound 0.253 µM) was 0.552 and the relative viability ([19]; first compound 0.8 µM) was 0.737. The relative viability ([19]; first compound 2.53 µM) was 1.19, the relative viability ([20]; first compound 0.08 µM) was 0.662 and the relative viability ([20]; first compound 0.253 µM) was 0.775. It also gave a relative viability ([20]; first compound 0.8 µM) of 0.55, a relative viability ([20]; first compound 2.53 µM) of 0.645 and a relative viability ([21]; first compound 0.08 µM) of 0.662. The relative viability ([21]; first compound 0.253 µM) was 0.496, the relative viability ([21]; first compound 0.8 µM) was 0.497 and the relative viability ([21]; first compound 2.53 µM) was 0.548. For the same compound, the relative viability ([22]; first compound 0.08 µM) was 0.406, the relative viability ([22]; first compound 0.253 µM) was 0.378 and the relative viability ([22]; first compound 0.8 µM) was 0.38. For the same compound, the relative viability ([22]; first compound 2.53 µM) was 0.403, the relative viability ([23]; first compound 0.08 µM) was 0.487 and the relative viability ([23]; first compound 0.253 µM) was 0.492. It also gave a relative viability ([23]; first compound 0.8 µM) of 0.552 and a relative viability ([23]; first compound 2.53 µM) of 0.327.
